Test results: patent publication US4078058A (priority 1976, dated 1978)

Experiments:
Type in all cases: cell-based
bacterial growth = assay: Inhibition of bacterial growth in nutrient broth (turbidity), organism not specified; details: 18-20 hours incubation at 37° C.
Experimental: (§1) In these tests bacterial growth was measured or observed by turbidity in the test tubes containing the inoculated nutrient broth after 18-20 hours incubation at 37° C.

Pseudomonas aeruginosa = assay: In vitro inhibition in nutrient broth, Pseudomonas aeruginosa; details: no growth by 48 hours; inoculum 0.2 ml of 1/10,000 dilution of overnight culture
Experimental: as §1
(§2) *Concentration -- μM/ml which permitted no growth by 48 hours.
(§3) Inoculum = 0.2 ml of 1/10,000 dilution of overnight culture.

Staph. aureus = assay: In vitro inhibition in nutrient broth, Staph. aureus; details: no growth by 48 hours; inoculum 0.2 ml of 1/10,000 dilution of overnight culture
Experimental: as §1, §2, §3

Esch. coli = assay: In vitro inhibition in nutrient broth, Esch. coli; details: no growth by 48 hours; inoculum 0.2 ml of 1/10,000 dilution of overnight culture
Experimental: as §1, §2, §3

Klebsiella pneumoniae = assay: In vitro inhibition in nutrient broth, Klebsiella pneumoniae; details: no growth by 48 hours; inoculum 0.2 ml of 1/10,000 dilution of overnight culture
Experimental: as §1, §2, §3

Row | SMILES | concentration inhibiting bacterial growth (bacterial growth) | Inhibitory concentration, Pseudomonas aeruginosa (Pseudomonas aeruginosa) [μM per ml] | Inhibitory concentration, Staph. aureus (Staph. aureus) [μM per ml] | Inhibitory concentration, Esch. coli (Esch. coli) [μM per ml] | Inhibitory concentration, Klebsiella pneumoniae (Klebsiella pneumoniae) [μM per ml]
1 | O=[N+]([O-])[O-].O=[N+]([O-])[O-].O=[N+]([O-])[O-].[Ce+3] [Cerous nitrate, cerous nitrate] | at least 1.0 μM per ml | 2.5 | 5.0 | 2.5 | 5.0
2 | O=[N+]([O-])[O-].[Ag+] [Silver nitrate, silver nitrate] |  | 0.025 | 0.005 | 0.005 | 0.1
